Publication PMC8541546, “Identification of HLA-A2-Restricted Mutant Epitopes from Neoantigens of Esophageal Squamous Cell Carcinoma” (Vaccines, 2021)

What was measured:
HLA-A*0201 molecule = molecular target: T1, HLA-A*0201 molecule (Homo sapiens, UniProt P04439, D140Y/D185E/D98H/E176V/E277Q/G131W/G231S/I119V/I121R/I166T/I218V/L300P/L318F/N151K/N90K/P208A/P217A/Q86G/Q94H/R138H/R169H/T345S); assay: T2A2 cell-binding assay; settings: T2A2 cells; FI = (MFI of peptide - MFI of control without peptide)/MFI of control without peptide; anti-HLA-A2 BB7.2, flow cytometry; FI > 1 = high binding affinity
T1 construct: T2A2 cells (TAP-deficient HLA-A2 molecules overexpressing, cultured in IMDM medium); host or cells: T2A2 cells
Procedure: The binding affinity of neoepitope to the MHC molecule and the stable neoepitope/MHC complex are critical for inducing T cell immune response, so we first performed a T2A2 cell-binding assay and stabilization assay. The T2A2 cell-binding assay was measured as in our previous study. The binding affinity was computed as follows: fluorescence index (FI) = (mean fluorescence intensity (MFI) of peptide group-MFI of the dissolved buffer without peptide group)/MFI of the dissolved buffer without peptide group.

[1] = molecular target: T2, peptide/HLA-A*0201 complex (Homo sapiens, UniProt P04439, D140Y/D185E/D98H/E176V/E277Q/G131W/G231S/I119V/I121R/I166T/I218V/L300P/L318F/N151K/N90K/P208A/P217A/Q86G/Q94H/R138H/R169H/T345S); assay: peptide/MHC complex stabilization assay on T2A2 cells; assay type: binding; settings: T2A2 cells pulsed with 50 μg/mL peptide and 3 μg/mL β2-M 18 h, BFA 1 h; MFI at 0, 2, 4, 6 h; time of half losing MFI of 0 h
T2 construct: T2A2 cells (TAP-deficient HLA-A2 molecules overexpressing, cultured in IMDM medium); β2-M from Merck; host or cells: T2A2 cells
Procedure: For the stabilization test, T2A2 cells were pulsed with 50 μg/mL mutant peptide and 3 μg/mL β2-Microglobulin (β2-M, Merck, Kenilworth, NJ, USA) in IMDM (serum-free) medium for 18 h. After three times washing, free peptides were removed and brefeldin A (BFA, 10 μg/mL, BD Bioscience, San Diego, CA, USA) was added. BFA was removed after 1 h impeding, and the cells were incubated for additional time. Finally, T2A2 was marked with anti-human HLA-A2 PE-Cyanine7 for 30 min, then analyzed by FACS Calibur (BD Bioscience, USA). MFI of 0 h was set as 100%, and the time of half losing MFI of 0 h defined the dissociation complex 50 (DC50). DC50 was computed as follows: (MFI of 0 h-MFI of (2, 4, or 6 h))/MFI of 0 h × 100%.

[2] = system: peptide-pulsed T2A2 cells; assay: IFN-γ intracellular staining of peptide-induced T cells from donor PBMCs; assay type: cell-based, human; settings: PBMCs of HLA-A2+ donors B–F, DCs pulsed with 10 μg/mL peptide, three rounds
Procedure: (§1) DCs involve and play an important role in initiating CD8^+ T cell response. Consequently, ten HLA-A2^+ healthy donors’ PBMCs were isolated, autologous DCs were generated, and CTLs were induced according to the procedure described previously. In brief, PBMCs were seeded at a density of 5 × 10^6 cells/well in a 6-well plate, and after 3 h, the non-adherent cells were removed and cryopreserved for future incubation with mature autologous DCs. Differentiation of the adherent cells into dendritic cells was induced by GM-CSF (100 ng/mL, #300-03, PeproTech, Rocky Hill, NJ, USA) and IL-4 (100 ng/mL; #200-04, PeproTech, USA), with replenishment every 2 days. On day 5, maturation of DCs was induced using 100 ng/mL LPS (#L4516, Sigma-Aldrich, St. Louis, MO, USA), and maturation was checked on day 8 by flow cytometry (BD FACSCelesta™) using markers for anti-human HLA-DR, anti-human CD80, and anti-human CD86. Then, mature DCs (1 × 10^5) were pulsed with each 10 μg /mL individual peptide or no peptides (control) for 2 h at 37 °C. Next, peptide-pulsed DCs were used to prime the previously cryopreserved autologous peripheral blood lymphocytes (PBLs) at a DC/PBL ratio of 1:10 using complete RPMI-1640 media supplemented with 100 IU/mL rhIL-2 (#200-02, PeproTech, USA) and 10 ng/mL rhIL-7 (#200-07, PeproTech, USA). Half of the feeding medium was replenished every 2 days. After 7 days, PBLs were restimulated with freshly pulsed autologous DCs every 7 days.
When target cells were peptide-pulsed T2A2 cells (MUT peptide or its corresponding WT peptide), peptide-specific T cells (from HLA-A2^+ healthy donors B–F) stimulated by MUT peptides were co-cultured with these cells in the presence of BFA for 5 h. Then T cells were marked by anti-human CD3 and anti-human CD8α monoclonal antibody. Thirty minutes later, cells were fixed by fixation buffer (Thermo Scientific, Waltham, MA, USA) for thirty minutes and washed by permeabilization buffer (Thermo Scientific, USA). Permeabilized T cells were marked by anti-human IFN-γ monoclonal antibody.

[3] = system: peptide-pulsed T2A2 cells; assay: Cytotoxicity assay of peptide-induced T cells from donor PBMCs; assay type: cell-based, human; settings: donors B–F; E/T 12.5:1, 25:1, 50:1; T2A2 loaded with 50 μg/mL peptide
Procedure: as §1
The cytotoxicity of peptide-specific T cells stimulated by mutant peptides was tested by using Cell Trace Far Red (Thermo Scientific, USA). Transfected cells were suspended in PBS (1 × 10^6 cells/mL) and labelled with Cell Trace Far Red as follows: Control target cells and test target cells were marked by 50 μM and 1 mM Cell Trace Far Red, respectively, at 37 °C for 20 min, protected from light. After incubation, target cells were washed with complete media at 37 °C for 5 min. […] Subsequently, test target cells were mixed with control target cells in a tube, washed once, and analyzed by flow cytometry. Specific lysis (%) = (numbers of control target cells—numbers of test target cells)/numbers of control target cells × 100% [28, 29], where, for tumor cells, the control target cells refer to KYSE140-WT cells marked with 50 μM Cell Trace Far Red, and the test target cell refers to KYSE140-WT or KYSE140-MUT cells marked with 1 mM Cell Trace Far Red, respectively (peptide-specific T cells generated from donors G–K’s PBMCs in vitro or generated from spleen lymphocytes of HLA-A2.1/K^b Tg mice in vivo). Additionally, for T2A2 target cells, T2A2 cells unpulsed and marked with 50 μM Cell Trace Far Red were used as the control target cells, while T2A2 cells loaded with MUT peptides or the corresponding WT peptides (50 μg/mL) or T2A2 cells only were marked with 1 mM Cell Trace Far Red and were used as test target cells (peptide-specific T cells stimulated from donors B–F’s PBMCs).

| Sequence | FI (fluorescence index) (HLA-A*0201 molecule) | DC50 (dissociation complex 50) [1] [h] | IFN-γ release of MUT peptide-induced T cells, MUT versus WT peptide-loaded T2A2 cells [2] | lysis cytotoxicity of MUT peptide-induced T cells on T2A2 cells [3] |
| --- | --- | --- | --- | --- |
| YLLTPNGRV [LRP1B-C2479Y] | 0.39 |  |  |  |
| LMSRIPHDV [MUC16-Q5024H] | 0.14 |  |  |  |
| QLQAQLQGV [KMT2D-R4198Q] | 1.12 | <2 |  |  |
| GLFQCGTGL [LRP1B-R3362L] | 0.09 |  |  |  |
| ALDMCVKFL [LRP1B-P3707L] | 0.37 |  |  |  |
| GMLSPVDFL [NOTCH1-S2202F] | 0.13 |  |  |  |
| SMGDALDSI [MUC16-A4579D] | 1.35 | <2 |  |  |
| TMPVVSSEV [MUC17-A2414V] | 1.54 | <4 |  |  |
| ALNKMFFQL [TP53-C135F] | 0.12 |  |  |  |
| NLHSINDFL [ABCA13-D1303H] | 0.24 |  |  |  |
| ALPQHLIRV [TP53-P190L] | 1.26 | >4 | cannot effectively distinguish T2A2 cells loaded with WT or MUT peptides | strong cytotoxicity activity |
| VLDDSETTI [MUC16-A9832D] | 3.56 | >6 | cannot effectively distinguish T2A2 cells loaded with WT or MUT peptides | strong cytotoxicity activity |
| TMSERSTLL [MUC17-T3809M] | 0.12 |  |  |  |
| LLARNSFEV [TP53-G266A] | 0.16 |  |  |  |
| ILIGETIKI [COX-2 321–329, reference compound] | 2.12 | >6 |  |  |
| FMNELMDII [DNAH5-D4110N] | 0.38 |  |  |  |
| ILWRQDTDL [NFE2L2-I28T] | 0.79 |  |  |  |

| Sequence | FI (fluorescence index) (HLA-A*0201 molecule) | DC50 (dissociation complex 50) [1] [h] | IFN-γ release of MUT peptide-induced T cells, MUT versus WT peptide-loaded T2A2 cells [2] | lysis cytotoxicity of MUT peptide-induced T cells on T2A2 cells [3] |
| --- | --- | --- | --- | --- |
| LLGRNSFEL [TP53-V272L] | 0.53 |  |  |  |
| ILQDGFLYV [ABCA13-E1359Q] | 1.56 | >6 | cannot effectively distinguish T2A2 cells loaded with WT or MUT peptides | strong cytotoxicity activity |
| TLTATVNIV [PCDH15-S628L] | 0.43 |  |  |  |
| CLRDYQPFL [LRP2-D1744Y] | 0.20 |  |  |  |
| FLTATRQEI [DNAH5-M4495T] | 0.21 |  |  |  |
| RMHDVTTPL [NOTCH1-G1995V] | 0.42 |  |  |  |
| YMCNSSCMV [TP53-G244V] | 0.49 |  |  |  |
| SIPSFPLPV [MUC16-S5361F] | 2.25 | <2 |  |  |
| FLIQTEQKL [SYNE1-V7402I] | 1.27 | >6 | cannot effectively distinguish T2A2 cells loaded with WT or MUT peptides | strong cytotoxicity activity |
| KLLSLLEVL [SYNE1-A65S] | 0.08 |  |  |  |
| YLPDHHEEL [SYNE1-S7628Y] | 1.67 | <2 |  |  |
| VISDYKYKV [NEB-D3282V] | 0.09 |  |  |  |
| GLPNDDLYI [DNAH5-S3587Y] | 0.68 |  |  |  |
| TILEELNVV [SYNE1-N4342I] | 1.81 | <4 |  |  |
| RMQRVLSHV [DNAH5-L4406H] | 0.30 |  |  |  |
| ILGEEAPRL [KMT2D-F4722L] | 0.29 |  |  |  |
